Results as given in patent publication US12331343B2, “FAMIN assay methods” (Cambridge Enterprise Limited, priority 2018, dated 2025).

What was measured:
recombinant human FAMIN [1] = target: T1, recombinant human FAMIN (Homo sapiens, UniProt Q8IV20); assay: specificity of FAMIN activity towards purine and pyrimidine nucleosides (substrate consumption, LC-MS); type: biochemical; settings: pure substrate with 10 μg recombinant FAMIN in 100 μl PBS, pH 7.4, 1 h at 37° C. (FIG. 2A, 2N, 2R, 2S)
T1 construct: twin Strep-tag (followed by short linker and TEV cleavage site) (N, cleaved yes); made in house; host or cells: HEK293T
T1 sequence (Q8IV20 1-430): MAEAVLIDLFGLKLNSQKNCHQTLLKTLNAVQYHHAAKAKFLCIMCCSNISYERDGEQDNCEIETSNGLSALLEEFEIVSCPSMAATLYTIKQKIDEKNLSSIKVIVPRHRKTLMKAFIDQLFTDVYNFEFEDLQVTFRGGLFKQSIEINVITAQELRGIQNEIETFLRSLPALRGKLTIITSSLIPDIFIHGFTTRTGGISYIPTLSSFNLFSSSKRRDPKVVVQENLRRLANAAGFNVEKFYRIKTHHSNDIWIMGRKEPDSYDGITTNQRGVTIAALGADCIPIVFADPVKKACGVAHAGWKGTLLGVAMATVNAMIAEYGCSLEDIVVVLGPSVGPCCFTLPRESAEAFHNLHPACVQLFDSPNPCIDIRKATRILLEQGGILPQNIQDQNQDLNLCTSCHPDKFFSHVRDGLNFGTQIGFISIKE
Source text: Peak intensity of each extracted chromatogram per given m/z value normalised to maximum level of 100. Controls as indicated include reaction buffer (PBS), protein elution buffer as described in methods, recombinant FAMIN without substrate or protein buffer with adenosine substrate. […] FIGS. 2C, 2D, 2E, and 2F show representative chromatograms and mass spectra for (2C) adenine, (2D) hypoxanthine, (2E) inosine and (2F) ribose-1-phosphate. Upper panels: (2C-E) extracted positive ion chromatogram showing injection of (2C) 1 μM standard of adenine; (2D) 5 μM standard of hypoxanthine; (2E) 5 μM standard of inosine on a BEH C8 column; (2F) extracted negative ion chromatogram showing injection of a 5 μg/mL standard of ribose-1-phosphate on a BEH amide HILIC column. All measurements performed using the Q Exactive Orbitrap and extracted at m/z values of (2C) adenine [M+H]^+: 136.0617, (2D) hypoxanthine [M+H]^+: 137.0457, (2E) inosine [M+H]^+: 269.0877 and (2F) ribose-1-phosphate [M−H]^−: 229.0119 at a tolerance of 2 ppm. Middle panels: Corresponding extracted chromatograms of a representative sample (10 μg recombinant FAMIN^254I incubated with 10 μM adenosine for 1 h in 100 μl phosphate-buffered saline). Peaks at indicated retention times perfectly match those of adenine, hypoxanthine, inosine and ribose-1-phosphate standards. Lower panels: high resolution Fourier transform mass spectrometry (FTMS) mass spectrum of the representative FAMIN^254I incubated sample during the peaks putatively identified as (2C) adenine, (2D) hypoxanthine, (2E) inosine, or (2F) ribose-1-phosphate. Nominal m/z values of (2C) 136, (2D) 137, (2E) 269 and (2F) 229, respectively, were selectively targeted and fragmented using a higher-energy collision dissociation (HCD) collision voltage of 25 eV to give the fragments shown. […] Calculated from absolute levels of hypoxanthine and inosine quantified using ^13C2, ^15N1-hypoxanthine and ^15N4-inosine internal standards, and adenine levels estimated using adenine external standard. […] (SAM; S-adenosylmethionine; MTA, S-methyl-5′-thioadenosine; 2′-dA, 2′-deoxyadenosine; n=3, mean±S.E.M.). […] FIGS. 2P and 2Q show on the left FAMIN catalysed enzymatic reactions. On the right they show levels of guanine or hypoxanthine and ribose-1-phosphate in reactions containing 100 μM guanosine or inosine and recombinant FAMIN or buffer control in 100 μl after 1 h at 37° C. (n=3, mean±S.E.M.). […] On the lower panels adenine, 2′-deoxyinosine, hypoxanthine and deoxyribose-1-phosphate levels following incubation of 10 μg recombinant FAMIN or buffer control with 10 μM 2′deoxyadenosine for 1 h in 100 μl PBS (n=3 each, mean±S.E.M.). […] All metabolite level data in this figure measured as area under the chromatographic peak, normalised for total ion content. *P<0.05 (unpaired, two-tailed Student's t-test).
(§1) Putative enzymatic function of recombinant human strep-tagged FAMIN was investigated against aqueous HepG2 metabolite extracts (dried, Folch extracted from 5×10^6 cells) or nucleoside substrates at indicated concentrations and detected using HPLC-MS as described above. Unless otherwise indicated in the figure legends, HEK293T cell-expressed protein was used for all assays. The reaction mixture (final volume 100 μL) consisted of 10 μg of recombinant protein and 10 μM nucleoside substrate in Dulbecco's PBS (Thermo Fisher), pH 7.4 unless otherwise indicated. The samples were incubated at 37° C. for 1 h and then quenched with ×5 volume of ice-cold methanol. Samples were centrifuged at 21,000 g for 5 min transferred to fresh tubes and then dried down prior to analysis as described above.

recombinant human FAMIN [2] = target: T1, recombinant human FAMIN; assay: adenosine phosphorylase activity of FAMIN (adenosine to adenine and ribose-1-phosphate, LC-MS); type: biochemical; settings: 10 μg recombinant FAMIN, 10 μM adenosine in PBS, 1 h at 37° C. (FIG. 5B, 5C)
Method: (§2) FIGS. 5B and 5C show levels of adenine and ribose-1-phosphate ([…]) in the reaction described in FIG. 5A. […] For enzyme kinetic assays a further chromatographic approach was used to allow for analysis of all substrates and products using a single assay. A Waters BEH C8 column was used (100×2.1 mm, 1.7 μm) with a weak mobile phase (A) of aqueous 10 mM ammonium acetate with 0.1% ammonia and a strong mobile phase (B) of acetonitrile. For gradient elution mobile phase B was held at 0% for 1.6 min, followed by a linear gradient to 30% B over 4.0 minutes, a further increase to 90% over 1 min, and a hold at 90% B for 1 min, with re-equilibration for 1.5 minutes giving a total run time of 6.5 minutes. The flow rate was 0.5 mL/min and the injection volume was 2 μL. The needle wash used was 4:1 water:acetonitrile. Putative enzymatic function of recombinant human strep-tagged FAMIN was investigated against aqueous HepG2 metabolite extracts (dried, Folch extracted from 5×10^6 cells) or nucleoside substrates at indicated concentrations and detected using HPLC-MS as described above. Unless otherwise indicated in the figure legends, HEK293T cell-expressed protein was used for all assays. The reaction mixture (final volume 100 μL) consisted of 10 μg of recombinant protein and 10 μM nucleoside substrate in Dulbecco's PBS (Thermo Fisher), pH 7.4 unless otherwise indicated. The samples were incubated at 37° C. for 1 h and then quenched with ×5 volume of ice-cold methanol. Samples were centrifuged at 21,000 g for 5 min transferred to fresh tubes and then dried down prior to analysis as described above.

recombinant human FAMIN [3] = target: T1, recombinant human FAMIN; assay: purine nucleoside phosphorylase activity of FAMIN (inosine to hypoxanthine and ribose-1-phosphate, LC-MS); type: biochemical; settings: 10 μg recombinant FAMIN, 10 μM inosine in PBS, 1 h at 37° C. (FIG. 5D, 5E)
Method: as §2, with “The samples were incubated at 37° C. for 1 h and then quenched with ×5 volume of ice-cold methanol. Samples were centrifuged at 21,000 g for 5 min transferred to fresh tubes and then dried down prior to analysis as described above.” left out

recombinant human FAMIN [4] = target: T1, recombinant human FAMIN; assay: adenosine deaminase activity of FAMIN (adenosine to inosine, LC-MS); type: biochemical; settings: 10 μg recombinant FAMIN, 10 μM adenosine in PBS, 1 h at 37° C. (FIG. 5A)
[5] = substrate: Nc1ncnc2c1ncn2[C@@H]1O[C@H](CO)[C@@H](O)[C@H]1O; assay: as above; type: biochemical, human; settings: other: 500 nM to 100 μM adenosine, inosine production, 1 h at 37° C., pH 7.4 (FIG. 3A)
[6] = substrate: Nc1ncnc2c1ncn2[C@@H]1O[C@H](CO)[C@@H](O)[C@H]1O; assay: adenosine phosphorylase activity of FAMIN (adenosine to adenine and ribose-1-phosphate, LC-MS); type: biochemical, human; settings: other: 500 nM to 100 μM adenosine, adenine production, 1 h at 37° C., pH 7.4 (FIG. 3A)
Method: as §2, with “The samples were incubated at 37° C. for 1 h and then quenched with ×5 volume of ice-cold methanol. Samples were centrifuged at 21,000 g for 5 min transferred to fresh tubes and then dried down prior to analysis as described above.” left out

[7] = substrate: OC[C@H]1O[C@@H](n2cnc3c(O)ncnc32)[C@H](O)[C@@H]1O; assay: purine nucleoside phosphorylase activity of FAMIN (inosine to hypoxanthine and ribose-1-phosphate, LC-MS); type: biochemical, human; settings: other: 500 nM to 100 μM inosine, hypoxanthine production, 1 h at 37° C., pH 7.4 (FIG. 3A)
Method: as §2, with “The samples were incubated at 37° C. for 1 h and then quenched with ×5 volume of ice-cold methanol. Samples were centrifuged at 21,000 g for 5 min transferred to fresh tubes and then dried down prior to analysis as described above.” left out

[8] = substrate: CSC[C@H]1O[C@@H](n2cnc3c(N)ncnc32)[C@H](O)[C@@H]1O; assay: S-methyl-5'-thioadenosine phosphorylase activity of FAMIN (MTA to adenine, LC-MS); type: biochemical, human; settings: other: 500 nM to 100 μM MTA, adenine production, 1 h at 37° C., pH 7.4 (FIG. 3A)
Method: Activity measured as inosine, hypoxanthine and adenine production following incubation with protein for 1 h at 37° C. at pH 7.4.
For enzyme kinetic assays a further chromatographic approach was used to allow for analysis of all substrates and products using a single assay. A Waters BEH C8 column was used (100×2.1 mm, 1.7 μm) with a weak mobile phase (A) of aqueous 10 mM ammonium acetate with 0.1% ammonia and a strong mobile phase (B) of acetonitrile. For gradient elution mobile phase B was held at 0% for 1.6 min, followed by a linear gradient to 30% B over 4.0 minutes, a further increase to 90% over 1 min, and a hold at 90% B for 1 min, with re-equilibration for 1.5 minutes giving a total run time of 6.5 minutes. The flow rate was 0.5 mL/min and the injection volume was 2 μL. The needle wash used was 4:1 water:acetonitrile.
as §1, with “The samples were incubated at 37° C. for 1 h and then quenched with ×5 volume of ice-cold methanol. Samples were centrifuged at 21,000 g for 5 min transferred to fresh tubes and then dried down prior to analysis as described above.” left out

Nc1nc2c(ncn2[C@@H]2O[C@H](CO)[C@@H](O)[C@H]2O)c(=O)[nH]1 [guanosine]
metabolised by FAMIN as pure substrate (recombinant human FAMIN [1]): metabolised

CSC[C@H]1O[C@@H](n2cnc3c(N)ncnc32)[C@H](O)[C@@H]1O [MTA, S-methyl-5′-thioadenosine]
metabolised by FAMIN as pure substrate (recombinant human FAMIN [1]): metabolised

C[C@H]1O[C@@H](n2cnc3c(N)ncnc32)[C@H](O)[C@@H]1O [5′-deoxy-adenosine, 5′-deoxyadenosine]
metabolised by FAMIN as pure substrate (recombinant human FAMIN [1]): substrate of FAMIN

Nc1nc2c(nc(N)n2[C@@H]2O[C@H](CO)[C@@H](O)[C@H]2O)c(=O)[nH]1 [8-aminoguanosine]
effect on FAMIN's adenosine phosphorylase activity (levels of adenine and R-1-P from adenosine) (recombinant human FAMIN [2]): did not affect | effect on FAMIN's purine nucleoside phosphorylase activity (generation of hypoxanthine and R-1-P from inosine) (recombinant human FAMIN [3]): inhibited

OC[C@H]1O[C@@H](n2cnc3c(O)ncnc32)[C@H](O)[C@@H]1O [inosine]
metabolised by FAMIN as pure substrate (recombinant human FAMIN [1]): metabolised

OC[C@H]1O[C@@H](n2cnc3c2NC=NC[C@H]3O)C[C@@H]1O [pentostatin]
effect on FAMIN's adenosine phosphorylase activity (levels of adenine and R-1-P from adenosine) (recombinant human FAMIN [2]): intact

Nc1ncnc2c1ncn2[C@H]1C[C@H](O)[C@@H](CO)O1 [2′-deoxy-adenosine, 2′-deoxyadenosine]
metabolised by FAMIN as pure substrate (recombinant human FAMIN [1]): metabolised

CCCCCC[C@@H]([C@@H](C)O)n1cnc2c(N)ncnc21 (racemic) [EHNA, erythro-9-(2-hydroxy-3-nonyl)adenine]
effect on adenosine deaminase activity of FAMIN (levels of inosine) (recombinant human FAMIN [4]): inhibited | effect on FAMIN's adenosine phosphorylase activity (levels of adenine and R-1-P from adenosine) (recombinant human FAMIN [2]): intact

Nc1ccn([C@@H]2O[C@H](CO)[C@@H](O)[C@H]2O)c(=O)n1 [cytidine]
metabolised by FAMIN as pure substrate (recombinant human FAMIN [1]): No activity

Nc1ncnc2c1ncn2[C@@H]1O[C@H](CO)[C@@H](O)[C@H]1O [adenosine]
metabolised by FAMIN as pure substrate (recombinant human FAMIN [1]): consumed

C[S+](CC[C@H](N)C(=O)[O-])C[C@H]1O[C@@H](n2cnc3c(N)ncnc32)[C@H](O)[C@@H]1O (some centres unmarked) [SAM, S-adenosylmethionine]
metabolised by FAMIN as pure substrate (recombinant human FAMIN [1]): not

B1: recombinant human FAMIN (Homo sapiens) (protein)
chain: MAEAVLIDLFGLKLNSQKNCHQTLLKTLNAVQYHHAAKAKFLCIMCCSNISYERDGEQDNCEIETSNGLSALLEEFEIVSCPSMAATLYTIKQKIDEKNLSSIKVIVPRHRKTLMKAFIDQLFTDVYNFEFEDLQVTFRGGLFKQSIEINVITAQELRGIQNEIETFLRSLPALRGKLTIITSSLIPDIFIHGFTTRTGGISYIPTLSSFNLFSSSKRRDPKVVVQENLRRLANAAGFNVEKFYRIKTHHSNDIWIMGRKEPDSYDGITTNQRGVTIAALGADCIPIVFADPVKKACGVAHAGWKGTLLGVAMATVNAMIAEYGCSLEDIVVVLGPSVGPCCFTLPRESAEAFHNLHPACVQLFDSPNPCIDIRKATRILLEQGGILPQNIQDQNQDLNLCTSCHPDKFFSHVRDGLNFGTQIGFISIKE
notes: twin Strep-tag (followed by short linker and TEV cleavage site) (N, cleaved yes); made in house; host or cells: HEK293T
Km [5]: 11 µM | Km [6]: 36 µM | Km [7]: 41 µM | Km [8]: 1 µM
